{"source": "patent US7470669B2", "about": "“Isolated polypeptide comprising a leptin fragment” (Serono Genetics Institute, S.A., priority 1999, dated 2008)", "key": {"Ob-R": {"target": "T1, Ob-R (Mus musculus, UniProt P48356)", "T1 sequence (P48356 22-894 isoform P48356-2 limits assumed)": "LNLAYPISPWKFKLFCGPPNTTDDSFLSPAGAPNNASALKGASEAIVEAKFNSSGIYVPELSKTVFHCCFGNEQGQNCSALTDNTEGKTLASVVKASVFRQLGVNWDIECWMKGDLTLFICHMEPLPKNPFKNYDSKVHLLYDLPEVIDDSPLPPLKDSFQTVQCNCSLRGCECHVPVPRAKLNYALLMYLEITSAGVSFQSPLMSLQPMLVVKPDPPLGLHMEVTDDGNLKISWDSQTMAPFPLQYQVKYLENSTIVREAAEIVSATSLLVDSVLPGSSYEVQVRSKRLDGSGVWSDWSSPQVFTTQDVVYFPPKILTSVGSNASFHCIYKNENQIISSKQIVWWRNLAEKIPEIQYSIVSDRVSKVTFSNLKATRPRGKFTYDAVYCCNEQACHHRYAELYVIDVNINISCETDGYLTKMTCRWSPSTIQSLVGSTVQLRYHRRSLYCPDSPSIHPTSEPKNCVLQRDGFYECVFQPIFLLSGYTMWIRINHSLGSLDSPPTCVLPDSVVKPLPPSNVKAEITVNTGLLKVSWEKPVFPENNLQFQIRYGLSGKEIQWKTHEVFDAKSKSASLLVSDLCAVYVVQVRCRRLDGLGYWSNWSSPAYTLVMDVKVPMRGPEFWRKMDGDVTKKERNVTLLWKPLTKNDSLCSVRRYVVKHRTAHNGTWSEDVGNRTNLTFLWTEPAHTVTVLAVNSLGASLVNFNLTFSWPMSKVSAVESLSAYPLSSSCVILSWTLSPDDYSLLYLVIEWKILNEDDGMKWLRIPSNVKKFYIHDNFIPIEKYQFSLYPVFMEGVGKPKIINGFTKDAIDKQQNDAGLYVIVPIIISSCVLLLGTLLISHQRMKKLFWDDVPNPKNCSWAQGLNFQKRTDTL", "conditions": "Tartaglia et al, 1995; cited from earlier work"}, "LDL-receptor": {"target": "LDL-receptor (Homo sapiens, UniProt P01130)", "sequence (P01130 22-860, species assumed)": "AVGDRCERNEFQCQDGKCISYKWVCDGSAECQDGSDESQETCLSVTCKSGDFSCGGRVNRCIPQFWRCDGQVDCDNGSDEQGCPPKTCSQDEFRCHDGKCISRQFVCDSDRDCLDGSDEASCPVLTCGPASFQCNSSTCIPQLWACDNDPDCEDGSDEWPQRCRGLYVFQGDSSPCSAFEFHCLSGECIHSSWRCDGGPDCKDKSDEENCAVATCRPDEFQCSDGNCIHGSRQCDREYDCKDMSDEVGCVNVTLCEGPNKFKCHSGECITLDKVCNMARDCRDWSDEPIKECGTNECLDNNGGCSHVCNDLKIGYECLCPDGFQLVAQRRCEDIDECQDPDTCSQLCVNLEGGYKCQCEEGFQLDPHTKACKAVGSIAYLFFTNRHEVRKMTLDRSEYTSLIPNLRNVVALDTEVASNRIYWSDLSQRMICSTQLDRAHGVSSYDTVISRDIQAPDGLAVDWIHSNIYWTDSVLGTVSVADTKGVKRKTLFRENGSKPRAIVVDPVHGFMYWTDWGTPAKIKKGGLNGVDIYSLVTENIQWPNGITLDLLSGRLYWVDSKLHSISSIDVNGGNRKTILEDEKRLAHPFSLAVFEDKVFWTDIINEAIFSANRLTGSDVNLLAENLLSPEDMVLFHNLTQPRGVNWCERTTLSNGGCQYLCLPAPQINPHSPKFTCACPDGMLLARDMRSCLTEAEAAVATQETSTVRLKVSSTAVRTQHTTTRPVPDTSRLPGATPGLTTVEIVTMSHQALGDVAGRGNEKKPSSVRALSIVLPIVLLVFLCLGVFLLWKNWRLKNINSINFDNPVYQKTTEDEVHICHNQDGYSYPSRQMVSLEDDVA", "test": "Degradation of LDL by the LDL-receptor", "type": "cell-based", "conditions": "leptin up to 2 μg/mL"}, "db/db mice": {"system": "db/db mice", "test": "Postprandial plasma TG response after high-fat test meal in db/db mice", "type": "in vivo, mouse", "method": "(§1) FIGS. 1A and 1B show the effect of leptin on postprandial plasma TG response in db/db and db^Pas/db^Pas mice. Overnight-fasted db/db (A), db^Pas/db^Pas (B) mice were gavage-fed a high-fat test meal and immediately injected intravenously (db/db) or intraperitoneally (db^Pas/db^Pas) with saline (open symbols) or 50 μg mouse recombinant leptin (closed symbols). At the indicated times, blood was collected from the tail (A) or orbital (B) vein, plasma was separated by centrifugation, and plasma TG concentrations were determined using an enzymatic kit. Each point represents the mean±SEM (db/db: saline, n=4, leptin, n=3; db^Pas/db^Pas: saline, n=6, leptin, n=7). The average plasma lipid response in 10 control C57BL6 mice is shown as a dotted line in both A and B. In a separate experiment, shown as an inset for each strain of mice, overnight fasted db/db (●) or db^Pas/db^Pas (▪) mice were gavage-fed the test meal and immediately injected intravenously with increasing concentrations of leptin. The plasma lipid response was then measured as in A and B. The area under the response curve (AUC) was then calculated using a triangulation method on Microsoft Excel between 0 and 4 hr (mg TG·h/mL). Values are presented as % of control value (test meal alone obtained in A or B). Each point represents the mean of at least 3 mice.\nMice that were fasted for 2-3 hours were gavage-fed 300 μL of a test meal consisting of 60% fat (37% saturated, 27% mono-, and 36% polyunsaturated fatty acids), 20% protein and 20% carbohydrate, and providing 56 kcal of energy/kg (1.5 g butter, 1.5 g sunflower oil, 2.5 g nonfat dry milk, 2.5 g sucrose and 3 ml water). Immediately after the meal, the animals were injected intravenously (db/db) or intraperitoneally (db^Pas/db^Pas) with either 200 μL physiological saline or 200 μL of the same solution containing recombinant mouse leptin. […] TG concentrations were determined using a commercially available enzymatic kit with controls included in each assay (Precinorm L, Roche-Boehringer Mannheim; Lyotrol N, BioMérieux). […]"}, "db^Pas/db^Pas mice": {"system": "db^Pas/db^Pas mice", "test": "Postprandial plasma TG response after high-fat test meal in db^Pas/db^Pas mice", "type": "in vivo, mouse", "method": "as §1\nFIGS. 7A and 7B show a comparison of the effect of human and mouse leptin on LSR activity in rat hepatocytes and on postprandial increase in plasma TG in db^Pas/db^Pas mice. For FIG. 7A, primary cultures of rat hepatocytes were incubated 30 min at 37° C. without (open bar) or with 10 ng/mL recombinant human (solid bar) or mouse (hatched bar) leptin in Buffer A. Oleate (0.5 mM) and ^125I-LDL (20 μg/mL) were added and the cells were incubated 2 h at 37° C. The media were removed and were analyzed for TCA-soluble degradation products. The mean of duplicate determinations is shown. For FIG. 7B, db^Pas/db^Pas mice were given a test meal as previously described, followed immediately by injection i.p. of saline (open bar, n=4), human leptin (1 μg/animal; solid bar, n=3) or mouse leptin (0.25 μg/animal; hatched bar; n=3). The data represent the difference in TG concentrations measured at t=0 and the average of the concentrations at 3 and 4 hours. Results are shown as mean±SEM.\nMice that were fasted for 2-3 hours were gavage-fed 300 μL of a test meal consisting of 60% fat (37% saturated, 27% mono-, and 36% polyunsaturated fatty acids), 20% protein and 20% carbohydrate, and providing 56 kcal of energy/kg (1.5 g butter, 1.5 g sunflower oil, 2.5 g nonfat dry milk, 2.5 g sucrose and 3 ml water). […] TG concentrations were determined using a commercially available enzymatic kit with controls included in each assay (Precinorm L, Roche-Boehringer Mannheim; Lyotrol N, BioMérieux)."}, "[1]": {"conditions": "250 ng leptin per animal, AUC 0-4 h"}, "[2]": {"conditions": "500 ng leptin per animal (maximum effect)"}}, "note": "pKd: −log10 of the molar value.", "data": [{"substance": "leptin: plasma protein of 16 kDa produced by adipocytes; recombinant human or mouse leptin, species depends on the experiment", "values": [{"measurement": "pKd", "setting": "Ob-R", "value": 9.15}, {"measurement": "degradation of LDL by the LDL-receptor", "setting": "LDL-receptor", "value": "no detectable effect"}, {"measurement": "area under the TG curve", "setting": "db/db mice; [1]", "value": "significant reduction"}, {"measurement": "decrease of the area under the postprandial TG curve", "setting": "db/db mice; [2]", "value": "> 80", "unit": "%"}, {"measurement": "amplitude of the triglyceride response", "setting": "db/db mice; single bolus 50 μg mouse recombinant leptin i.v. at time of test meal", "value": "decreased the amplitude of the triglyceride response"}, {"measurement": "area under the TG curve", "setting": "db^Pas/db^Pas mice; [1]", "value": "significant reduction"}, {"measurement": "decrease of the area under the postprandial TG curve", "setting": "db^Pas/db^Pas mice; [2]", "value": "> 65", "unit": "%"}, {"measurement": "amplitude of the triglyceride response", "setting": "db^Pas/db^Pas mice; single bolus 50 μg mouse recombinant leptin i.p. at time of test meal", "value": "decreased the amplitude of the triglyceride response"}]}]}
